For this test, the target named is T1, PDE5 enzyme (Homo sapiens, UniProt O76074).
T1 construct: The PDE5 enzyme isolated from human platelets; from tissue; host or cells: human platelets
Nature of the test: Method 1: Human Platelet PDE5 Enzyme Inhibition Scintillation Proximity Assay. The test is classed as biochemical. The settings on record: METHOD 1: PDE5 IC50, Table B, WO2004096810 examples. From the text:
Method 1: Human Platelet PDE5 Enzyme Inhibition Scintillation Proximity Assay
An in vitro assay can be used to evaluate the inhibition of PDE5 enzyme activity by a test compound.
The PDE5 enzyme for use in the assay can be obtained from human platelets by appropriate modification of the method of Thompson, W J et al.; Biochemistry 18(23), 5228-5237, 1979, as described by Ballard S A et al.; J. Urology 159(6), 2164-2171, 1998. The PDE5 enzyme isolated from human platelets can be used to catalyze the hydrolysis of [^3H]cGMP (Amersham Biosciences) to 5′ nucleotide [^3H]GMP. The [^3H]GMP binds to yttrium silicate SPA beads (Amersham Biosciences) and is detected by scintillation counting. More specifically, the effect of the test compound at different concentrations can be evaluated in the assay by contacting the compound with a fixed amount of PDE5 enzyme in the presence of substrate (cGMP or cAMP in a 3:1 ratio unlabelled to [^3H]-labeled). Scintillation counting can be used as described above to determine relative PDE5 enzyme activity. The inhibition of PDE5 enzyme activity is then calculated relative to total PDE5 enzyme activity of uninhibited controls.
PDE5 IC50 Assay: 96-well microtiter plate format
• Buffer A: 20 mM Tris-HCl, 5 mM MgCl2, pH 7.4 • Buffer B: 2 mg/ml BSA in Buffer A (enzyme buffer) • cGMP substrate: Final concentration of 500 nM in assay The amount of ^3H-labeled substrate added depends upon the specific activity of [^3H]cGMP, and the cGMP substrate is diluted with a 10 mM stock of cold cGMP in Buffer A for a final substrate concentration of 500 nM in the assay. • PDE enzyme: Prepared in Buffer B. The dilution factor is determined by enzyme activity. • SPA beads: 20 mg/ml suspension prepared in dH2O.
Stocks of standard and test compounds are prepared at 5 mM in 100% DMSO. The compound is serially diluted in a dilution plate using a 10-point ½ log dilution format. 2 μl of the compound dilution is added in duplicate to the wells of the assay plate. 2 μl of 100% DMSO are added to designated control wells. 25 μl of Buffer A are added to all wells. 25 μl of Buffer B are added to the negative control wells. 25 μl of enzyme are added to the remaining wells. 50 μl of substrate are added to each well. Plates are sealed and incubated for 60 minutes on a plate shaker at 30 C. 50 plof SPA beads are added to stop the reaction. The plates are again sealed and shaken for 15 minutes to allow the beads to bind the GMP product. The beads are allowed to settle for 30 minutes and then read on a NXT TopCount scintillation counter. Data are analyzed with a curve fitting application for plate-based screening. Percent inhibition in this assay is calculated as follows: Inhibition (%)=[(mean maximum−compound value/(mean maximum−mean minimum)]×100.
The IC50 value is determined from sigmoid dose-response curves of enzyme activity versus compound concentration.
(In general: In a scintillation proximity assay essentially only radioactivity close to the scintillant gives light.)

Consider `CCOCCn1nc(CC)c2nc(N(C)[C@H]3CCN(C)C3)nc(Nc3ccncn3)c21` [WO2004096810 Example 193], for which the IC50 (commonly the point on the concentration scale where inhibition reaches its midpoint) came out at 1.01 nM.

On to `CCOCCn1nc(C)c2nc(N3CCN[C@H](C)C3)nc(Nc3ccc(OC)nc3)c21` [WO2004096810 Example 194], for which the IC50 was 0.56 nM. The same measure for `CCOCCn1nc(C)c2nc(N3CCN[C@H](C)C3)nc(Nc3ccc(OC)cn3)c21` [WO2004096810 Example 195]: 0.96 nM; for `CCOCCn1nc(C)c2nc(N3CCN[C@H](C)C3)nc(Nc3cccc(OC)n3)c21` [WO2004096810 Example 196]: 0.56 nM.

`CCOCCn1nc(C)c2nc(N3CCN[C@H](C)C3)nc(Nc3cccc(C)n3)c21` [WO2004096810 Example 197] came in with an IC50 of 1.76 nM. This IC50 is about 3.1-fold higher than that of the compound before. Regarding `CCOCCn1nc(C)c2nc(N3CCN[C@H](C)C3)nc(Nc3cc(C)cc(C)n3)c21` [WO2004096810 Example 198], the IC50 amounted to 10 nM. Against the preceding compound, the IC50 is about 5.7-fold higher. For the compound `CCOCCn1nc(C)c2nc(N3CCN[C@H](C)C3)nc(Nc3cnc(C)c(C)c3)c21` [WO2004096810 Example 199], inhibition was half-maximal at 3.13 nM (IC50).

`CCOCCn1nc(C)c2nc(N3CCN[C@H](C)C3)nc(Nc3cc(C)ncn3)c21` [WO2004096810 Example 200] showed an IC50 of 4.7 nM. Compound `CCOCCn1nc(C)c2nc(N3CCN[C@H](C)C3)nc(Nc3ccc(=O)n(C)c3)c21` [WO2004096810 Example 201] displayed an IC50 of 25.9 nM. In the case of `CCOCCn1nc(C)c2nc(N(C)CCOC)nc(Nc3ccc(=O)n(C)c3)c21` [WO2004096810 Example 202], inhibition was half-maximal at 5.46 nM (IC50). The result for `CCOCCn1nc(C)c2nc(N(C)CC)nc(Nc3ccc(=O)n(C)c3)c21` [WO2004096810 Example 203] reads 0.63 nM. As for `CCOCCn1nc(C)c2nc(N3CC(NC)C3)nc(Nc3cc(C)ccn3)c21` [WO2004096810 Example 204], the IC50 is 24.1 nM. This IC50 is about 38-fold higher than that of the compound before. The same measure for `CCOCCn1nc(C)c2nc(N3CC(N(C)C)C3)nc(Nc3cc(C)ccn3)c21` [WO2004096810 Example 205]: 6.24 nM; for `CCOCCn1nc(C)c2nc(N3C[C@@H]4C[C@H]3CN4C)nc(Nc3cc(C)ccn3)c21` [WO2004096810 Example 206]: 6.09 nM; for `CCOCCn1nc(C)c2nc(N(C)CCOC)nc(Nc3cc(C)ccn3)c21` [WO2004096810 Example 207]: 1.55 nM. With `CCOCCn1nc(C)c2nc(N(C)CCO)nc(Nc3cc(C)ccn3)c21` [WO2004096810 Example 208], the IC50 amounted to 0.71 nM. Compound `CCOCCn1nc(C)c2nc(N3C[C@@H]4C[C@H]3CN4C)nc(Nc3ccncn3)c21` [WO2004096810 Example 210] displayed an IC50 of 82.7 nM. The same measure for `CCOCCn1nc(COC)c2nc(N3CCN[C@H](C)C3)nc(Nc3cccc(C)n3)c21` [WO2004096810 Example 211]: 1.57 nM; for `CCOCCn1nc(COC)c2nc(N(C)CC)nc(Nc3cc(C)ccn3)c21` [WO2004096810 Example 212]: 0.13 nM; for `CCOCCn1nc(COC)c2nc(N3CCC[C@H]3CO)nc(Nc3cc(C)ccn3)c21` [WO2004096810 Example 213]: 0.42 nM. The compound `CCOCCn1nc(COC)c2nc(N(C)C3CCN(C)CC3)nc(Nc3cc(C)ccn3)c21` [WO2004096810 Example 214] showed an IC50 of 0.37 nM. As to `CCOCCn1nc(COC)c2nc(N3CC(N(C)C)C3)nc(Nc3cc(C)ccn3)c21` [WO2004096810 Example 215], the IC50 came to 5.3 nM. The result for `CCOCCn1nc(C)c2nc(N(C)CCN(C)C)nc(Nc3ccncn3)c21` [WO2004096810 Example 216] reads 60.9 nM; that for `CCOCCn1nc(C)c2nc(N(C)CC)nc(Nc3ccncn3)c21` [WO2004096810 Example 217], 2.55 nM; that for `CCOCCn1nc(C)c2nc(N(C)CC)nc(Nc3ccnc(C)n3)c21` [WO2004096810 Example 218], 11.5 nM. The result for `CCOCCn1nc(C)c2nc(N(C)CCOC)nc(Nc3ccnc(C)n3)c21` [WO2004096810 Example 219] reads 41 nM.
